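Test compounds were applied to cells in 96-well plates for 48 hours at 5 doses. GI50 is the concentration that inhibits growth by half.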 Calls of active or inactive are those of the source. Cut-off read from the data, not from the text of the source: active = GI50 up to about 1.1 µM and inactive = higher. Bounds are passed on as bounds.

Test systems include 786-0; A498; ACHN; BT-549; CAKI-1; CCRF-CEM; HCT-116; HCT-15; HOP-62; Hs-578T; IGROV-1; LOX IMVI; MDA-MB-231; NCI-H522; OVCAR-5; RPMI-8226; SNB-19; T47D; U-251; DLD-1.
Common to all, as to assay: NCI anticancer screen, dose series, 48 h

As to `Cc1cc2oc(=O)c(Cl)c(Cl)c2c(C)c1Cl`, the GI50 in the test on 786-0 is 3.15 µM (inactive); in the test on A498, 19.9 µM (inactive); in the test on ACHN, 11.2 µM (inactive); in the test on BT-549 it was 7.26 µM (inactive); in the test on CAKI-1, 4.74 µM (inactive); with CCRF-CEM, 2.83 µM (inactive). The GI50 in the test on HCT-116 was 3.78 µM (inactive); with HCT-15, 3.5 µM; in the test with HOP-62, 24.6 µM (inactive); with Hs-578T it was 2.59 µM (inactive); with IGROV-1 it was 4.3 µM (inactive); in the test on LOX IMVI it was 2.76 µM (inactive). The GI50 is 11 µM (inactive) with MDA-MB-231; 14.3 µM (inactive) in the test with NCI-H522; 12.1 µM (inactive) in the test on OVCAR-5; 2.35 µM (inactive) in the test on RPMI-8226; 11.8 µM (inactive) in the test on SNB-19; 5.46 µM (inactive) with T47D. For the same compound, the GI50 in the test on U-251 is 3.19 µM (inactive).
Turning to `CC(C)(C)c1cc(C(=O)C2Cc3ccccc3C(=O)O2)cc(C(C)(C)C)c1O` (configuration not stated), the GI50 was 12.3 µM (inactive) in the test on 786-0; 13.5 µM (inactive) in the test on A498; 17.1 µM (inactive) with ACHN; 10.5 µM (inactive) in the test on BT-549; 19.3 µM (inactive) with CAKI-1; 5.01 µM (inactive) in the test on CCRF-CEM. Besides, the GI50 in the test on HCT-116 is 10.2 µM (inactive); in the test on HCT-15, 12.4 µM; with HOP-62, 13.7 µM (inactive); in the test on Hs-578T it was 29.3 µM (inactive); with IGROV-1, 14.5 µM (inactive); in the test on LOX IMVI, 11.9 µM (inactive). Also, the GI50 with MDA-MB-231 was 12.1 µM (inactive); with NCI-H522 it was 11.6 µM (inactive); in the test on OVCAR-5, 16.6 µM (inactive); in the test with RPMI-8226, 5.93 µM (inactive); with SNB-19, 11.8 µM (inactive); in the test on T47D, 16.5 µM (inactive). In addition, in the test on U-251, the GI50 is 10.5 µM (inactive).
`COC(=O)C1CCC(=O)N1C(c1ccc(OC)cc1)c1ccc(OC)cc1` (configuration not stated): the GI50 in the test with 786-0, in the test with A498, with ACHN, with BT-549, with CAKI-1 and in the test on CCRF-CEM was > 100 µM (inactive) throughout. Also, the GI50 with HCT-116 is > 100 µM (inactive); with HCT-15, greater than 100 µM; with HOP-62, > 100 µM (inactive); with Hs-578T, > 100 µM (inactive); in the test with IGROV-1 it was > 100 µM (inactive); in the test on LOX IMVI it was > 100 µM (inactive). The GI50 in the test on MDA-MB-231 was > 100 µM (inactive); in the test on NCI-H522 it was > 100 µM (inactive); with OVCAR-5 it was > 100 µM (inactive); in the test on RPMI-8226, > 100 µM (inactive); in the test with SNB-19, > 100 µM (inactive); with T47D, 78.9 µM (inactive). The GI50 in the test with U-251 was > 100 µM (inactive).
Regarding `COc1ccccc1-n1c(NN)nc2ccc(Br)cc2c1=O`, the GI50 in the test on 786-0 was 36.9 µM (inactive); in the test on ACHN it was 36.5 µM (inactive); with CAKI-1 it was 48.1 µM (inactive); in the test on CCRF-CEM, 23.7 µM (inactive); with DLD-1, 34.8 µM (inactive); with HCT-15, 35.6 µM. Further, the GI50 in the test on HOP-62 is 28.8 µM (inactive); in the test on IGROV-1 it was 38.2 µM (inactive); in the test with LOX IMVI, 27.9 µM (inactive); with NCI-H522, 16.9 µM (inactive); in the test with OVCAR-5, 18.2 µM (inactive); with RPMI-8226, 41.2 µM (inactive). Also, the results for the GI50 in the test on SNB-19 and with U-251 were 37 µM (inactive) and 35.4 µM (inactive), respectively.
As to `C[C@]12CCC(=O)C=C1CC[C@@H]1C2CC[C@]2(C)c3nn(-c4ccccc4)nc3CC12` (some centres not stated), the GI50 with 786-0, in the test with A498, in the test on ACHN, in the test with CCRF-CEM, in the test on DLD-1 and with HCT-116 was > 100 µM (inactive) in each case. Moreover, the GI50 in the test with HCT-15 was greater than 100 µM; with HOP-62, > 100 µM (inactive); in the test on IGROV-1, > 100 µM (inactive); in the test on LOX IMVI, > 100 µM (inactive); with OVCAR-5 it was > 100 µM (inactive); in the test with RPMI-8226 it was > 100 µM (inactive). Also, the GI50 with SNB-19 and with U-251 was > 100 µM (inactive) in each case.
For the compound `C/C=C/COc1cc(NC(=S)OC(C)C)ccc1Cl.C/C=C\COc1cc(NC(=S)OC(C)C)ccc1Cl`, the GI50 in the test on 786-0 was 17.3 µM (inactive); in the test with A498 it was 16.2 µM (inactive); in the test with ACHN it was 17.7 µM (inactive); in the test with BT-549 it was 19.6 µM (inactive); in the test with CAKI-1, 4.06 µM (inactive); with CCRF-CEM, 25.3 µM (inactive). The GI50 was 17.4 µM (inactive) in the test with HCT-116; 17.3 µM in the test with HCT-15; 20 µM (inactive) in the test with HOP-62; 17.7 µM (inactive) in the test on Hs-578T; 19.6 µM (inactive) in the test on IGROV-1; 19.5 µM (inactive) in the test on LOX IMVI. Moreover, the GI50 in the test on MDA-MB-231 is 23.8 µM (inactive); in the test with NCI-H522, 14.1 µM (inactive); with OVCAR-5, 19 µM (inactive); in the test with RPMI-8226, 70.1 µM (inactive); with SNB-19 it was 20.7 µM (inactive); in the test on T47D it was 16.9 µM (inactive). The GI50 with U-251 was 16.9 µM (inactive).
Turning to `CC(=O)NC1=CC(=O)c2cc(C)cc(O)c2C1=O`, the GI50 in the test with 786-0 is 13.7 µM (inactive); in the test on A498 it was 11 µM (inactive); in the test with ACHN it was 9.66 µM (inactive); in the test with BT-549, 7.06 µM (inactive); in the test on CAKI-1, 17.8 µM (inactive); with CCRF-CEM, 4.47 µM (inactive). For the same compound, the GI50 in the test with HCT-116 was 5.51 µM (inactive); with HCT-15 it was 2.88 µM; with HOP-62, 17.9 µM (inactive); in the test with Hs-578T, 31.8 µM (inactive); with IGROV-1 it was 11.8 µM (inactive); with LOX IMVI, 1.53 µM (inactive). For the same compound, the GI50 was 7.19 µM (inactive) in the test with MDA-MB-231; 8.83 µM (inactive) with NCI-H522; 12.5 µM (inactive) in the test on OVCAR-5; 2.92 µM (inactive) with RPMI-8226; 28.1 µM (inactive) with SNB-19; 14.5 µM (inactive) in the test with T47D. Further, the GI50 with U-251 is 9.33 µM (inactive).
In the case of `CC1=NN(C(=O)Cc2ccccc2)C(=O)/C1=C/c1c(O)ccc2ccccc12`, the GI50 in the test with 786-0 was 83.9 µM (inactive); in the test on ACHN, 28.1 µM (inactive); in the test on CAKI-1, 92.5 µM (inactive); in the test on CCRF-CEM, 23.3 µM (inactive); in the test on DLD-1, 10 µM (inactive); in the test on HCT-116 it was 49.1 µM (inactive). Moreover, the GI50 is 2.21 µM with HCT-15; > 100 µM (inactive) with HOP-62; 27.5 µM (inactive) in the test on LOX IMVI; 67.9 µM (inactive) in the test on NCI-H522; 35.8 µM (inactive) in the test on OVCAR-5; 33.2 µM (inactive) in the test with RPMI-8226. Besides, in the test on SNB-19, the GI50 was 50.8 µM (inactive).
Take `OC(O)(C(F)(F)F)C(F)(F)F`: the GI50 in the test with 786-0, in the test on A498, with ACHN, in the test on BT-549, in the test on CAKI-1 and with CCRF-CEM was > 100 µM (inactive) in each case. Moreover, the GI50 is > 100 µM (inactive) in the test on HCT-116; greater than 100 µM with HCT-15; > 100 µM (inactive) in the test with HOP-62; > 100 µM (inactive) in the test with Hs-578T; > 100 µM (inactive) in the test on IGROV-1; > 100 µM (inactive) with LOX IMVI. The GI50 in the test on MDA-MB-231, in the test on NCI-H522, in the test on OVCAR-5, in the test on RPMI-8226, in the test on SNB-19 and in the test on T47D was > 100 µM (inactive) in each case. Also, in the test on U-251, the GI50 is > 100 µM (inactive).
As to `N/C=N/S(=O)(=O)c1ccc(NC(=O)COC(=O)c2cccc3c(=O)c4ccccc4[nH]c23)cc1`, the GI50 in the test on 786-0 was > 100 µM (inactive); with ACHN it was > 100 µM (inactive); with CCRF-CEM, > 100 µM (inactive); in the test with DLD-1, > 100 µM (inactive); in the test with HCT-116, > 100 µM (inactive); in the test with HCT-15, greater than 100 µM. Moreover, the GI50 with HOP-62, in the test on IGROV-1, in the test with LOX IMVI, in the test with NCI-H522, in the test on RPMI-8226 and in the test on SNB-19 was > 100 µM (inactive) each time. Besides, in the test with U-251, the GI50 was > 100 µM (inactive).
`CC(=O)O[C@H]1C(=O)[C@@]2(C)[C@H]([C@H](OC(=O)c3ccccc3)[C@]3(O)C[C@H](OC(=O)[C@H](OC(=O)OCCC(O)CO)[C@@H](NC(=O)c4ccccc4)c4ccccc4)C(C)=C1C3(C)C)[C@]1(OC(C)=O)CO[C@@H]1C[C@@H]2O` (some centres not stated): the GI50 was 0.0105 µM (active) with 786-0; 0.141 µM (active) in the test with A498; 1.09 µM (active) in the test on ACHN; < 0.0159 µM (active) in the test on BT-549; 0.631 µM (active) in the test on CAKI-1; < 0.01 µM (active) in the test on CCRF-CEM. In addition, the GI50 was < 0.01 µM (active) in the test with HCT-116; 0.303 µM with HCT-15; < 0.01 µM (active) with HOP-62; < 0.01 µM (active) in the test with Hs-578T; < 0.01 µM (active) in the test with IGROV-1; < 0.01 µM (active) in the test on LOX IMVI. Also, the GI50 in the test with MDA-MB-231 was < 0.0135 µM (active); with NCI-H522, < 0.01 µM (active); with OVCAR-5, < 0.016 µM (active); in the test with RPMI-8226, < 0.01 µM (active); with SNB-19, < 0.01 µM (active); in the test with T47D, < 0.01 µM (active). In addition, the GI50 in the test with U-251 was < 0.01 µM (active).
Consider `CCN1CC2(C)CC[C@@H](OC)C34[C@@H]2[C@H](OC(C)=O)C2(OCO[C@@]25C[C@H](OC)C2C[C@]3(O)[C@@H]5[C@H]2O)[C@H]14`, for which the GI50 in the test with 786-0 is 34.2 µM (inactive); with CAKI-1 it was > 100 µM (inactive); with DLD-1, > 100 µM (inactive); in the test on HCT-116, > 100 µM (inactive); with HOP-62, 82.6 µM (inactive); in the test on LOX IMVI it was > 100 µM (inactive). In addition, the GI50 in the test on NCI-H522, with OVCAR-5, in the test with SNB-19 and in the test with U-251 was > 100 µM (inactive) in each case.

The values are drawn from ChEMBL document CHEMBL1201862, “PubChem BioAssay data set” (2004).
